Experimental data reported in patent publication US11312712B2, “Azabenzimidazoles and their use as AMPA receptor modulators” (Janssen Pharmaceutica NV, priority 2015, dated 2022).

What follows are molecules tested against GluA1o-γ8 (GRIA1o-CACNG8 fusion construct) (Homo sapiens (Human), UniProt P42261+Q8WXS5) (assay: Calcium flux assay (FLIPR), inhibition of TARP γ8 dependent AMPA receptor activity). Conditions: GluA1o-γ8 (GRIA1o-CACNG8 fusion) in HEK293 cells, calcium flux after 15 μM glutamate.
GluA1o-γ8 (GRIA1o-CACNG8 fusion construct), sequence (P42261 other isoform, or with tags, fused parts or gaps): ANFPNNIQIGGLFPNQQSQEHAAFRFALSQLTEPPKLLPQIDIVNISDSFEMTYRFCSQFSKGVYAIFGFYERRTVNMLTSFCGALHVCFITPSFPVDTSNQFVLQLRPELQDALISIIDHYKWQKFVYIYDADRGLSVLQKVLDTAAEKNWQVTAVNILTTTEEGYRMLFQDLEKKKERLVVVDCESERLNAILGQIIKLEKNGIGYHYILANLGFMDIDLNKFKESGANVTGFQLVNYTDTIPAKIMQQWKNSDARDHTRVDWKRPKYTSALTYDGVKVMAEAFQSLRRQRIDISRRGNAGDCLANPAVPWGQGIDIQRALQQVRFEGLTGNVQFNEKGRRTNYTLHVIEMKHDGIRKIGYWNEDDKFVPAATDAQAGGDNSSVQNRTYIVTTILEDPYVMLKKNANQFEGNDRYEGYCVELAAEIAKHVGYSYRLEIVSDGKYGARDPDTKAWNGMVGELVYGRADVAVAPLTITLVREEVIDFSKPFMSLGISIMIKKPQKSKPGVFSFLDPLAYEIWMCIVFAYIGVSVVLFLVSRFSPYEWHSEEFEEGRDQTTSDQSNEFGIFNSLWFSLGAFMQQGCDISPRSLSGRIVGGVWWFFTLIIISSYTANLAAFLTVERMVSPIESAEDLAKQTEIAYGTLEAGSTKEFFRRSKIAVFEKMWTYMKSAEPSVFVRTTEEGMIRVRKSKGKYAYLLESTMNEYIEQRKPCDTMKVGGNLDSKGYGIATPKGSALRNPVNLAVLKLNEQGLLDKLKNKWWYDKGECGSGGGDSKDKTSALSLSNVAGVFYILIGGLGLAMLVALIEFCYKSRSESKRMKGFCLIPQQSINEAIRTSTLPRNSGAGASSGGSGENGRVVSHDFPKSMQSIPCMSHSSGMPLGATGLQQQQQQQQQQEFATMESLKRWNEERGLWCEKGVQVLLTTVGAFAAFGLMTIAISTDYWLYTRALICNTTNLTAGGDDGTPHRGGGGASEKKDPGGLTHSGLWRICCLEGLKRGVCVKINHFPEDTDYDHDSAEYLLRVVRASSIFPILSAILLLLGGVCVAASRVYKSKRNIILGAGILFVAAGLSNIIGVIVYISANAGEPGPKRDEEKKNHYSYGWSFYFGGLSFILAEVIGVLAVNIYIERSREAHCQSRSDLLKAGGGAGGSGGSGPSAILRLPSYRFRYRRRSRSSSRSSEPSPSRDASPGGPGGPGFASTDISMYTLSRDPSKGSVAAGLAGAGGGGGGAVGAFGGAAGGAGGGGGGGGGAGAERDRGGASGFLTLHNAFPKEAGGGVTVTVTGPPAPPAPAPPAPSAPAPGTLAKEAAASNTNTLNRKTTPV
Type: cell-based
In short: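 Glutamate (15 μM) was added to a stable HEK293 line carrying the GluA1o–γ8 fusion, which had been preincubated with compound and calcium dye in HEPES buffer, pH 7.4. Normalized FLIPR fluorescence (no compound vs 10 μM CP465022) was fitted with four parameters; pIC50 is the midpoint's negative log.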

| Compound | IC50 [nM] |
| --- | --- |
| Cc1cc(-n2c(C(F)F)nc3ccc(C(F)(F)F)nc32)cc2cn[nH]c12 [Example 286, 2-(Difluoromethyl)-3-(7-methyl-1H-indazol-5-yl)-5-(trifluoromethyl)imidazo[4,5-b]pyridine] | 0.0501 |
| FC(F)(F)c1ccc2nc(C(F)(F)F)n(-c3ccc4cn[nH]c4c3)c2n1 [Example 291, 3-(1H-Indazol-6-yl)-2,5-bis(trifluoromethyl)imidazo[4,5-b]pyridine] | 63.1 |
| O=C1Cc2cc(-n3c(C(F)(F)F)nc4ccc(C(F)(F)F)nc43)cnc2N1 [Example 292, 5-[2,5-Bis(trifluoromethyl)imidazo[4,5-b]pyridin-3-yl]-1,3-dihydropyrrolo[2,3-b]pyridin-2-one] | 7.94 |
| Cc1cc(-n2c(C(F)(F)F)nc3ccc(C(F)(F)F)nc32)cc2cn[nH]c12 [Example 294, 3-(7-Methyl-1H-indazol-5-yl)-2,5-bis(trifluoromethyl)imidazo[4,5-b]pyridine] | 0.02 |
| N#Cc1n[nH]c2ccc(-n3c(C(F)(F)F)nc4ccc(C(F)(F)F)nc43)cc12 [Example 295, 5-[2,5-Bis(trifluoromethyl)imidazo[4,5-b]pyridin-3-yl]-1H-indazole-3-carbonitrile] | 39.8 |
| CC(C)c1nc2ccc(C(F)(F)F)nc2n1-c1ccc2[nH]nc(Br)c2c1 [Example 298, 3-(3-Bromo-1H-indazol-5-yl)-2-isopropyl-5-(trifluoromethyl)imidazo[4,5-b]pyridine] | 79.4 |
| CC(C)c1nc2ccc(C(F)(F)F)nc2n1-c1cc(Cl)c2c(c1)CC(=O)N2 [Example 299, 7-Chloro-5-[2-isopropyl-5-(trifluoromethyl)imidazo[4,5-b]pyridin-3-yl]indolin-2-one] | 0.2 |
| CC(C)c1nc2ccc(C(F)(F)F)nc2n1-c1cnc2c(c1)CC(=O)N2 [Example 301, 5-[2-Isopropyl-5-(trifluoromethyl)imidazo[4,5-b]pyridin-3-yl]-1,3-dihydropyrrolo[2,3-b]pyridin-2-one] | 31.6 |
| C=CCc1cc(-n2c(C(F)(F)F)nc3ccc(C(F)(F)F)nc32)cc2cn[nH]c12 [Example 304, 3-(7-Allyl-1H-indazol-5-yl)-2,5-bis(trifluoromethyl)-3H-imidazo[4,5-b]pyridine] | 63.1 |
| FC(F)(F)c1ccc2ncn(-c3cc(Cl)c4[nH]ncc4c3)c2n1 [Example 306, 3-(7-Chloro-1H-indazol-5-yl)-5-(trifluoromethyl)imidazo[4,5-b]pyridine] | 2.51 |
| FC(F)(F)c1ccc2nc(C3CCC3)n(-c3cc(Cl)c4[nH]ncc4c3)c2n1 [Example 308, 3-(7-Chloro-1H-indazol-5-yl)-2-cyclobutyl-5-(trifluoromethyl)imidazo[4,5-b]pyridine] | 0.00501 |
| Cc1cc(-n2c(C(C)C)nc3ccc(C(F)(F)F)nc32)cc2[nH]ncc12 [Example 311, 2-Isopropyl-3-(4-methyl-1H-indazol-6-yl)-5-(trifluoromethyl)imidazo[4,5-b]pyridine] | 15.8 |
| Cc1nc2ccc(C(F)(F)F)nc2n1-c1cc(Cl)c2c(c1)CC(=O)N2 [Example 313, 7-Chloro-5-[2-methyl-5-(trifluoromethyl)imidazo[4,5-b]pyridin-3-yl]indolin-2-one] | 1 |
| CCc1nc2ccc(C(F)(F)F)nc2n1-c1cc(C)c2[nH]ncc2c1 [Example 315, 2-Ethyl-3-(7-methyl-1H-indazol-5-yl)-5-(trifluoromethyl)imidazo[4,5-b]pyridine] | 0.1 |
| Cc1cc(-n2c(C(F)(F)F)nc3cccnc32)cc2c1NC(=O)C2 [Example 318, 7-Methyl-5-[2-(trifluoromethyl)imidazo[4,5-b]pyridin-3-yl]indolin-2-one] | 31.6 |
| FC(F)(F)c1nc2ccc(-c3ccccn3)nc2n1-c1ccc2[nH]ncc2c1 [Example 320, 3-(1H-Indazol-5-yl)-5-(2-pyridyl)-2-(trifluoromethyl)imidazo[4,5-b]pyridine] | 200 |
| Fc1ccc(-c2nc3ccc(C(F)F)nc3n2-c2ccc3[nH]ncc3c2)cc1 [Example 322, 5-(Difluoromethyl)-2-(4-fluorophenyl)-3-(1H-indazol-5-yl)imidazo[4,5-b]pyridine] | 0.0631 |

Continued by falling IC50, values first:

| IC50 [nM] | Compound |
| --- | --- |
| 1000 | O=C1Cc2ccc(-n3c(C4CC4)nc4ccc(C(F)(F)F)nc43)cc2N1 [Example 297, 6-[2-Cyclopropyl-5-(trifluoromethyl)imidazo[4,5-b]pyridin-3-yl]indolin-2-one] |
| 251 | COC(=O)c1cc(-n2c(C(F)F)nc3ccc(C(F)(F)F)nc32)cc2cn[nH]c12 [Example 285, Methyl 5-[2-(difluoromethyl)-5-(trifluoromethyl)imidazo[4,5-b]pyridin-3-yl]-1H-indazole-7-carboxylate] |
| 158 | Oc1n[nH]c2ccc(-n3c(C(F)F)nc4ccc(C(F)(F)F)nc43)cc12 [Example 296, 5-[2-(Difluoromethyl)-5-(trifluoromethyl)imidazo[4,5-b]pyridin-3-yl]-1H-indazol-3-ol] |
| 126 | COC(=O)c1cc(-n2c(C(F)(F)F)nc3ccc(C(F)(F)F)nc32)cc2cn[nH]c12 [Example 284, Methyl 5-[2,5-bis(trifluoromethyl)imidazo[4,5-b]pyridin-3-yl]-1H-indazole-7-carboxylate] |
| 39.8 | FC(F)(F)c1ccc2nc(C(F)(F)F)n(-c3cnc4[nH]ccc4c3)c2n1 [Example 293, 3-(1H-Pyrrolo[2,3-b]pyridin-5-yl)-2,5-bis(trifluoromethyl)imidazo[4,5-b]pyridine] |
| 39.8 | CC(C)c1nc2ccc(C(F)(F)F)nc2n1-c1cnc2[nH]ncc2c1 [Example 302, 2-Isopropyl-3-(1H-pyrazolo[3,4-b]pyridin-5-yl)-5-(trifluoromethyl)imidazo[4,5-b]pyridine] |
| 31.6 | CC(C)c1nc2ccc(C(F)(F)F)nc2n1-c1cnc2[nH]ccc2c1 [Example 303, 2-Isopropyl-3-(1H-pyrrolo[2,3-b]pyridin-5-yl)-5-(trifluoromethyl)imidazo[4,5-b]pyridine] |
| 10 | Cc1cc(-n2c(C(F)(F)F)nc3cccnc32)cc2cn[nH]c12 [Example 317, 3-(7-Methyl-1H-indazol-5-yl)-2-(trifluoromethyl)imidazo[4,5-b]pyridine] |
| 6.31 | O=C1Cc2cc(-n3c(C(F)F)nc4ccc(C(F)(F)F)nc43)cc(F)c2N1 [Example 288, 5-[2-(Difluoromethyl)-5-(trifluoromethyl)imidazo[4,5-b]pyridin-3-yl]-7-fluoro-indolin-2-one] |
| 3.98 | Cc1cc(-n2c(C(F)(F)F)nc3ccc(C(F)(F)F)nc32)cc2[nH]ncc12 [Example 289, 3-(4-Methyl-1H-indazol-6-yl)-2,5-bis(trifluoromethyl)imidazo[4,5-b]pyridine] |
| 2.51 | CC(C)c1nc2cc(F)cnc2n1-c1cc(Cl)c2[nH]ncc2c1 [Example 300, 3-(7-Chloro-1H-indazol-5-yl)-6-fluoro-2-isopropyl-imidazo[4,5-b]pyridine] |
| 1 | FC(F)c1ccc2nc(C3CC3)n(-c3ccc4[nH]ncc4c3)c2n1 [Example 321, 2-Cyclopropyl-5-(difluoromethyl)-3-(1H-indazol-5-yl)imidazo[4,5-b]pyridine] |
| 0.631 | Cc1cc(-n2c(C)nc3ccc(C(F)(F)F)nc32)cc2c1NC(=O)C2 [Example 309, 7-Methyl-5-[2-methyl-5-(trifluoromethyl)imidazo[4,5-b]pyridin-3-yl]indolin-2-one] |
| 0.631 | Cc1cc(-n2c(C)nc3ccc(C(F)(F)F)nc32)cc2cn[nH]c12 [Example 319, 2-Methyl-3-(7-methyl-1H-indazol-5-yl)-5-(trifluoromethyl)imidazo[4,5-b]pyridine] |
| 0.251 | Cc1nc2ccc(C(F)(F)F)nc2n1-c1cc(Cl)c2[nH]ncc2c1 [Example 312, 3-(7-Chloro-1H-indazol-5-yl)-2-methyl-5-(trifluoromethyl)imidazo[4,5-b]pyridine] |
| 0.2 | O=c1[nH]c2c(Br)cc(-n3c(C(F)(F)F)nc4ccc(C(F)(F)F)nc43)cc2o1 [Example 290, 6-[2,5-Bis(trifluoromethyl)imidazo[4,5-b]pyridin-3-yl]-4-bromo-3H-1,3-benzoxazol-2-one] |
| 0.158 | Cc1cc(-n2c(C(F)F)nc3ccc(C(F)(F)F)nc32)cc2c1NC(=O)C2 [Example 287, 5-[2-(Difluoromethyl)-5-(trifluoromethyl)imidazo[4,5-b]pyridin-3-yl]-7-methyl-indolin-2-one] |
| 0.158 | Cc1cc(-n2c(C(C)C)nc3ccc(C(F)(F)F)nc32)cc2c1NC(=O)C2 [Example 310, 5-[2-Isopropyl-5-(trifluoromethyl)imidazo[4,5-b]pyridin-3-yl]-7-methyl-indolin-2-one] |
| 0.0501 | FC(F)c1ccc2nc(-c3ccccc3)n(-c3ccc4[nH]ncc4c3)c2n1 [Example 323, 5-(Difluoromethyl)-3-(1H-indazol-5-yl)-2-phenyl-imidazo[4,5-b]pyridine] |
| 0.0316 | CCc1nc2ccc(C(F)(F)F)nc2n1-c1cc(Cl)c2[nH]ncc2c1 [Example 314, 3-(7-Chloro-1H-indazol-5-yl)-2-ethyl-5-(trifluoromethyl)imidazo[4,5-b]pyridine] |
| 0.02 | C=C(C)c1cc(-n2c(C(F)(F)F)nc3ccc(C(F)(F)F)nc32)cc2cn[nH]c12 [Example 305, 3-(7-(Prop-1-en-2-yl)-1H-indazol-5-yl)-2,5-bis(trifluoromethyl)-3H-imidazo[4,5-b]pyridine] |
| 0.02 | CC(C)c1nc2ccc(C(F)(F)F)nc2n1-c1cc(Cl)c2[nH]ncc2c1 [Example 316, 3-(7-Chloro-1H-indazol-5-yl)-2-isopropyl-5-(trifluoromethyl)imidazo[4,5-b]pyridine] |
| 0.00501 | FC(F)(F)c1ccc2nc(C3CC3)n(-c3cc(Cl)c4[nH]ncc4c3)c2n1 [Example 307, 3-(7-Chloro-1H-indazol-5-yl)-2-cyclopropyl-5-(trifluoromethyl)imidazo[4,5-b]pyridine] |
